The text below walks through data of PubChem BioAssay AID256 (DTP/NCI, 2004).

Several values for one entry are separate records, joined by “and”; a condition that tells them apart may be missing. Identical values can stand only once. Toxic doses and inconclusive results are not listed.

The assay has as its system CD2F1 mice, L1210 leukemia ip, survival T/C. The experiment in a line: NCI In Vivo Anticancer Drug Screen. Data for tumor model L1210 Leukemia (intraperitoneal) in CD2F1 (CDF1) mice. The note with it: higher = longer survival. In a few lines: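 Tumor-bearing mice (transplanted tumor) were split into treated and vehicle control groups, and the measured endpoint of each treated group was divided by that of its vehicle controls.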

[1] abbreviates: endpoint: mean survival time, dose: 25.0 mg/kg/injection, schedule: Q01DX009 (ip), vehicle: saline with Tween-80.

On to `CCOC(=O)c1cc([N+](=O)[O-])c[nH]1`, for which the T/C is, setting by setting: (endpoint: median survival time, dose: 25.0 mg/kg/injection, schedule: Q01DX009 (ip), vehicle: Klucel (hydroxypropylcellulose) (HPC)) 101 % of control; (endpoint: median survival time, dose: 50.0 mg/kg/injection, schedule: Q01DX009 (ip), vehicle: Klucel (hydroxypropylcellulose) (HPC)) 98 % of control; (endpoint: median survival time, dose: 100.0 mg/kg/injection, schedule: Q01DX009 (ip), vehicle: Klucel (hydroxypropylcellulose) (HPC)) 97 % of control; (endpoint: median survival time, dose: 200.0 mg/kg/injection, schedule: Q01DX009 (ip), vehicle: Klucel (hydroxypropylcellulose) (HPC)) 98 % of control.
`CN1CCN(c2ccc3nc(-c4ccc5nc(-c6ccc(O)cc6)[nH]c5c4)[nH]c3c2)CC1`: the T/C is, setting by setting: (endpoint: mean survival time, dose: 6.25 mg/kg/injection, schedule: Q01DX009 (ip), vehicle: saline) 124 % of control; (endpoint: mean survival time, dose: 12.5 mg/kg/injection, schedule: Q01DX009 (ip), vehicle: saline) 124 % of control; (endpoint: mean survival time, dose: 25.0 mg/kg/injection, schedule: Q01DX009 (ip), vehicle: saline) 183 % of control; (endpoint: mean survival time, dose: 50.0 mg/kg/injection, schedule: Q01DX009 (ip), vehicle: saline) 238 % of control and 314 % of control; (endpoint: mean survival time, dose: 100.0 mg/kg/injection, schedule: Q01DX009 (ip), vehicle: saline) 294 % of control; (endpoint: median survival time, dose: 6.25 mg/kg/injection, schedule: Q01DX009 (ip), vehicle: saline) 124 % of control. Further, the T/C (endpoint: median survival time, dose: 12.5 mg/kg/injection, schedule: Q01DX009 (ip), vehicle: saline) is 117 % of control and 120 % of control; the T/C (endpoint: median survival time, dose: 18.0 mg/kg/injection, schedule: Q01DX005 (ip), vehicle: saline) was 119 % of control; the T/C (endpoint: median survival time, dose: 18.0 mg/kg/injection, schedule: Q01DX005 (iv), vehicle: saline) was 116 % of control; the T/C (endpoint: median survival time, dose: 37.0 mg/kg/injection, schedule: Q01DX005 (iv), vehicle: saline) is 115 % of control; the T/C (endpoint: median survival time, dose: 50.0 mg/kg/injection, schedule: Q01DX005 (oral), vehicle: saline) was 101 % of control; the T/C (endpoint: median survival time, dose: 50.0 mg/kg/injection, schedule: Q01DX009 (ip), vehicle: saline) was 226 % of control and 344 % of control. Further, the T/C was 151 % of control (endpoint: median survival time, dose: 75.0 mg/kg/injection, schedule: Q01DX005 (ip), vehicle: saline); 96 % of control (endpoint: median survival time, dose: 100.0 mg/kg/injection, schedule: Q01DX005 (oral), vehicle: saline); 348 % of control (endpoint: median survival time, dose: 150.0 mg/kg/injection, schedule: Q01DX005 (ip), vehicle: saline); 94 % of control (endpoint: median survival time, dose: 200.0 mg/kg/injection, schedule: Q01DX005 (oral), vehicle: saline); 116 % of control and 91 % of control (endpoint: median survival time, dose: 200.0 mg/kg/injection, schedule: Q01DX009 (ip), vehicle: saline); 96 % of control (endpoint: median survival time, dose: 400.0 mg/kg/injection, schedule: Q01DX005 (oral), vehicle: saline). In addition, the T/C (endpoint: median survival time, dose: 800.0 mg/kg/injection, schedule: Q01DX005 (oral), vehicle: saline) is 94 % of control.
`O=C(O)CCC(=O)O`: the T/C (endpoint: mean survival time, dose: 10.0 mg/kg/injection, schedule: Q01DX009 (ip), vehicle: saline) is 104 % of control; the T/C (endpoint: mean survival time, dose: 10.0 mg/kg/injection, schedule: Q01DX009 (ip), vehicle: water) was 95 % of control and 98 % of control; the T/C (endpoint: mean survival time, dose: 20.0 mg/kg/injection, schedule: Q01DX001 (ip), vehicle: saline) was 104 % of control; the T/C (endpoint: mean survival time, dose: 20.0 mg/kg/injection, schedule: Q01DX001 (ip), vehicle: water) was 95 % of control and 98 % of control; the T/C (endpoint: mean survival time, dose: 20.0 mg/kg/injection, schedule: Q01DX009 (ip), vehicle: saline) is 97 % of control; the T/C (endpoint: mean survival time, dose: 20.0 mg/kg/injection, schedule: Q01DX009 (ip), vehicle: water) was 101 % of control and 98 % of control. The T/C by setting is: (endpoint: mean survival time, dose: 20.0 mg/kg/injection, schedule: Q04DX003 (ip), vehicle: saline) 96 % of control; (endpoint: mean survival time, dose: 20.0 mg/kg/injection, schedule: Q04DX003 (ip), vehicle: water) 98 % of control; (endpoint: mean survival time, dose: 40.0 mg/kg/injection, schedule: Q01DX001 (ip), vehicle: saline) 104 % of control; (endpoint: mean survival time, dose: 40.0 mg/kg/injection, schedule: Q01DX001 (ip), vehicle: water) 103 % of control and 101 % of control; (endpoint: mean survival time, dose: 40.0 mg/kg/injection, schedule: Q01DX009 (ip), vehicle: saline) 104 % of control; (endpoint: mean survival time, dose: 40.0 mg/kg/injection, schedule: Q01DX009 (ip), vehicle: water) 97 % of control and 95 % of control. For the same compound, the T/C (endpoint: mean survival time, dose: 40.0 mg/kg/injection, schedule: Q04DX003 (ip), vehicle: saline) was 102 % of control; the T/C (endpoint: mean survival time, dose: 40.0 mg/kg/injection, schedule: Q04DX003 (ip), vehicle: water) was 96 % of control; the T/C (endpoint: mean survival time, dose: 80.0 mg/kg/injection, schedule: Q01DX001 (ip), vehicle: saline) was 103 % of control; the T/C (endpoint: mean survival time, dose: 80.0 mg/kg/injection, schedule: Q01DX001 (ip), vehicle: water) is 97 % of control; the T/C (endpoint: mean survival time, dose: 80.0 mg/kg/injection, schedule: Q01DX009 (ip), vehicle: saline) is 104 % of control; the T/C (endpoint: mean survival time, dose: 80.0 mg/kg/injection, schedule: Q01DX009 (ip), vehicle: water) is 95 % of control and 97 % of control. Also, the T/C was 98 % of control (endpoint: mean survival time, dose: 80.0 mg/kg/injection, schedule: Q04DX003 (ip), vehicle: saline); 91 % of control and 96 % of control (endpoint: mean survival time, dose: 80.0 mg/kg/injection, schedule: Q04DX003 (ip), vehicle: water); 101 % of control (endpoint: mean survival time, dose: 160.0 mg/kg/injection, schedule: Q01DX001 (ip), vehicle: saline); 98 % of control and 93 % of control (endpoint: mean survival time, dose: 160.0 mg/kg/injection, schedule: Q01DX001 (ip), vehicle: water); 98 % of control (endpoint: mean survival time, dose: 160.0 mg/kg/injection, schedule: Q01DX009 (ip), vehicle: saline); 98 % of control and 90 % of control (endpoint: mean survival time, dose: 160.0 mg/kg/injection, schedule: Q01DX009 (ip), vehicle: water). The T/C was 101 % of control (endpoint: mean survival time, dose: 160.0 mg/kg/injection, schedule: Q04DX003 (ip), vehicle: saline); 98 % of control and 93 % of control (endpoint: mean survival time, dose: 160.0 mg/kg/injection, schedule: Q04DX003 (ip), vehicle: water); 106 % of control (endpoint: mean survival time, dose: 320.0 mg/kg/injection, schedule: Q01DX001 (ip), vehicle: saline); 101 % of control (endpoint: mean survival time, dose: 320.0 mg/kg/injection, schedule: Q01DX001 (ip), vehicle: water); 98 % of control (endpoint: mean survival time, dose: 320.0 mg/kg/injection, schedule: Q04DX003 (ip), vehicle: saline); 87 % of control and 98 % of control (endpoint: mean survival time, dose: 320.0 mg/kg/injection, schedule: Q04DX003 (ip), vehicle: water). The T/C by setting is: (endpoint: mean survival time, dose: 640.0 mg/kg/injection, schedule: Q01DX001 (ip), vehicle: saline) 103 % of control; (endpoint: mean survival time, dose: 640.0 mg/kg/injection, schedule: Q01DX001 (ip), vehicle: water) 101 % of control.
Consider `CCCC(C)c1ccccc1O` (stereo not drawn), for which the T/C runs as follows: under setting [1], 102 % of control; (endpoint: mean survival time, dose: 25.0 mg/kg/injection, schedule: Q04DX003 (ip), vehicle: saline) 97 % of control; (endpoint: mean survival time, dose: 50.0 mg/kg/injection, schedule: Q01DX009 (ip), vehicle: saline with Tween-80) 98 % of control; (endpoint: mean survival time, dose: 50.0 mg/kg/injection, schedule: Q04DX003 (ip), vehicle: saline) 105 % of control; (endpoint: mean survival time, dose: 100.0 mg/kg/injection, schedule: Q01DX009 (ip), vehicle: saline with Tween-80) 92 % of control; (endpoint: mean survival time, dose: 100.0 mg/kg/injection, schedule: Q04DX003 (ip), vehicle: saline) 94 % of control.
Turning to `Cc1ccccc1C1(c2ccccc2C)OC(=O)c2ccccc21`, the T/C is 104 % of control (endpoint: mean survival time, dose: 100.0 mg/kg/injection, schedule: Q04DX003 (ip), vehicle: acetone); 88 % of control (endpoint: mean survival time, dose: 200.0 mg/kg/injection, schedule: Q04DX003 (ip), vehicle: acetone); 96 % of control (endpoint: mean survival time, dose: 400.0 mg/kg/injection, schedule: Q04DX003 (ip), vehicle: acetone).
Consider `Nc1ncnc2c1ncn2[C@@H](C=O)O[C@@H](C=O)CO`, for which the T/C reads like this: (endpoint: mean survival time, dose: 3.12 mg/kg/injection, schedule: Q01DX009 (ip), vehicle: saline with Tween-80) 164 % of control; (endpoint: mean survival time, dose: 3.13 mg/kg/injection, schedule: Q01DX005 (ip), vehicle: saline with Tween-80) 152 % of control; (endpoint: mean survival time, dose: 6.25 mg/kg/injection, schedule: Q01DX005 (ip), vehicle: saline with Tween-80) 180 % of control; (endpoint: mean survival time, dose: 6.25 mg/kg/injection, schedule: Q01DX009 (ip), vehicle: saline with Tween-80) 176 % of control; (endpoint: mean survival time, dose: 12.5 mg/kg/injection, schedule: Q01DX005 (ip), vehicle: other) 165 % of control; (endpoint: mean survival time, dose: 12.5 mg/kg/injection, schedule: Q01DX005 (ip), vehicle: saline with Tween-80) 153 % of control. The T/C (endpoint: mean survival time, dose: 12.5 mg/kg/injection, schedule: Q01DX009 (ip), vehicle: saline with Tween-80) was 185 % of control; the T/C (endpoint: mean survival time, dose: 25.0 mg/kg/injection, schedule: Q01DX005 (ip), vehicle: other) is 172 % of control; the T/C under setting [1] is 89 % of control.
